Patent publication US20260347364A1, “PYRAZOLO[4,3-F]QUINAZOLINE DERIVATIVES AS MODULATORS OF G12D MUTANT KRAS USEFUL FOR THE TREATMENT OF CANCER” (JAZZ PHARMACEUTICALS IRELAND LTD., priority 2023, published 2026)

Tests used:
KRAS G12D = biological target: T1, KRAS G12D (Homo sapiens, UniProt P01116, G12D); assay: HTRF nucleotide exchange assay, KRAS G12D; type: biochemical; details: HTRF nucleotide exchange assay (NEA), class symbols
T1 construct: aa1-188 KRAS WT, HRAS WT, NRAS WT, or KRAS containing the G12D
T1 sequence (P01116 1-188 isoform P01116-2 G12D): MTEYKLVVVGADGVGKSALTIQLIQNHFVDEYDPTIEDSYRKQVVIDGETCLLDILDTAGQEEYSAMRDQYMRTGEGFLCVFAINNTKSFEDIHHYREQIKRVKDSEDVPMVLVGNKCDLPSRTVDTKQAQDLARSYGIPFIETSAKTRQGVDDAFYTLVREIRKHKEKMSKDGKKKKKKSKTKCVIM

KRAS WT = biological target: T2, KRAS WT (Homo sapiens, UniProt P01116); assay: HTRF nucleotide exchange assay, KRAS WT; type: biochemical; details: class symbols; for IC50: HTRF nucleotide exchange assay (NEA)
T2 construct: aa1-188 KRAS WT
T2 sequence (P01116 1-188 isoform P01116-2): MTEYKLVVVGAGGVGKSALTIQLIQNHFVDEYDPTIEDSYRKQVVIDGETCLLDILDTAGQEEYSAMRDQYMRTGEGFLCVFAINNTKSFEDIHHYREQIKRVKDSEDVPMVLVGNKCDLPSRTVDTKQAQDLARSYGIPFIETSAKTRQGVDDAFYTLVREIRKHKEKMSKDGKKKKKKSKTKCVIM

Row | Compound | IC50 (KRAS G12D) | IC50 (KRAS WT) | KRAS^WT NEA (KRAS WT)
1 | CCc1c(F)ccc2cc(O)cc(-c3cc4nc(OC[C@@]56CCCN5C[C@H](F)C6)nc(N5CC6CCC(C5)C6C#N)c4c4cn(C)nc34)c12 (stereo partly drawn) [Example 210, 3-[4-(8-ethyl-7-fluoro-3-hydroxy-1-naphthyl)-7-[[(2R,8S)-2-fluoro-1,2,3,5,6,7-hexahydropyrrolizin-8-yl]methoxy]-2-methyl-pyrazolo[4,3-f]quinazolin-9-yl]-3-azabicyclo[3.2.1]octane-8-carbonitrile] | 10 to 100 nM | 10 to 100 nM | –
2 | CCc1c(F)ccc2cc(O)cc(-c3c(C)c4nc(OCC5(CN(C)C)CC5)nc(N5CCOCC(C)(O)C5)c4c4cn(C)nc34)c12 (centres unmarked) [Example 142, 4-[7-[[1-[(dimethylamino)methyl]cyclopropyl]methoxy]-4-(8-ethyl-7-fluoro-3-hydroxy-1-naphthyl)-2,5-dimethyl-pyrazolo[4,3-f]quinazolin-9-yl]-6-methyl-1,4-oxazepan-6-ol] | ≤ 10 nM | ≤ 10 nM | –
3 | Cn1cc2c(n1)c(-c1cc(O)ccc1OC(F)(F)F)cc1nc(OC[C@@]34CCCN3C[C@H](F)C4)nc(N3CCCOCC3)c12 [Example 38, 3-[2-methyl-9-(1,4-oxazepan-4-yl)-7-[[(2R,8S)-2-fluoro-1,2,3,5,6,7-hexahydropyrrolizin-8-yl]methoxy]pyrazolo[4,3-f]quinazolin-4-yl]-4-(trifluoromethoxy)phenol] | 100 to 10000 nM | 100 to 10000 nM | –
4 | CCc1c(F)ccc2cc(O)cc(-c3cc4nc(OC[C@@]56CCCN5C[C@H](F)C6)nc(N5CCCC(O)(C(C)C)C5)c4c4cn(C)nc34)c12 (stereo partly drawn) [Example 134, 1-[4-(8-ethyl-7-fluoro-3-hydroxy-1-naphthyl)-2-methyl-7-[[(2R,8S)-2-fluoro-1,2,3,5,6,7-hexahydropyrrolizin-8-yl]methoxy]pyrazolo[4,3-f]quinazolin-9-yl]-3-isopropyl-piperidin-3-ol] | 100 to 10000 nM | – | D (<49% inhibition at 10 μM)
5 | CCc1c(F)ccc2cc(O)cc(-c3cc4nc(OC[C@@]56CCCN5C[C@H](F)C6)nc(N5CC6CCC(C5)N6CC(C)O)c4c4cn(C)nc34)c12 (stereo partly drawn) [Example 186, 5-ethyl-6-fluoro-4-[7-[[(2R,8S)-2-fluoro-1,2,3,5,6,7-hexahydropyrrolizin-8-yl]methoxy]-9-[8-(2-hydroxypropyl)-3,8-diazabicyclo[3.2.1]octan-3-yl]-2-methyl-pyrazolo[4,3-f]quinazolin-4-yl]naphthalen-2-ol] | 10 to 100 nM | 10 to 100 nM | –
6 | CN(C)C(=O)c1cc2n(n1)CCCN(c1nc(OC[C@@]34CCCN3C[C@H](F)C4)nc3cc(-c4cc(O)ccc4C#N)c4nn(C)cc4c13)C2 [Example 62] | 10 to 100 nM | 100 to 10000 nM | –
7 | CCc1c(F)ccc2cc(O)cc(-c3c(C)c4nc(OC[C@@H]5CCCN5C)nc(N5CCOCC(C)(O)C5)c4c4cn(C)nc34)c12 (stereo partly drawn) [Example 138, 4-[4-(8-ethyl-7-fluoro-3-hydroxy-1-naphthyl)-2,5-dimethyl-7-[[(2S)-1-methylpyrrolidin-2-yl]methoxy]pyrazolo[4,3-f]quinazolin-9-yl]-6-methyl-1,4-oxazepan-6-ol] | ≤ 10 nM | ≤ 10 nM | –
8 | C#Cc1c(F)ccc2cc(O)cc(-c3c(C)c4nc(OC[C@@]56CCCN5C[C@H](F)C6)nc(N5CCOCC(C)(O)C5)c4c4cn(C)nc34)c12 (stereo partly drawn) [Example 185, 4-[4-(8-ethynyl-7-fluoro-3-hydroxy-1-naphthyl)-7-[[(2R,8S)-2-fluoro-1,2,3,5,6,7-hexahydropyrrolizin-8-yl]methoxy]-2,5-dimethyl-pyrazolo[4,3-f]quinazolin-9-yl]-6-methyl-1,4-oxazepan-6-ol] | 10 to 100 nM | ≤ 10 nM | –
9 | CCc1c(F)ccc2cc(O)cc(-c3cc4nc(OCC5CCN(C)CC5)nc(N5CCCOCC5)c4c4cn(C)nc34)c12 [Example 31, 5-ethyl-6-fluoro-4-[2-methyl-7-[(1-methyl-4-piperidyl)methoxy]-9-(1,4-oxazepan-4-yl)pyrazolo[4,3-f]quinazolin-4-yl]naphthalen-2-ol] | 100 to 10000 nM | 100 to 10000 nM | –
10 | CCc1c(F)ccc2cc(O)cc(-c3c(F)c4nc(OCC5(CN6CCOC(C(F)(F)F)C6)CC5)nc(N5CCOCC(C)(O)C5)c4c4cn(C)nc34)c12 (centres unmarked) [Example 219, 4-[4-(8-ethyl-7-fluoro-3-hydroxy-1-naphthyl)-5-fluoro-2-methyl-7-[[1-[[2-(trifluoromethyl)morpholin-4-yl]methyl]cyclopropyl]methoxy]pyrazolo[4,3-f]quinazolin-9-yl]-6-methyl-1,4-oxazepan-6-ol] | 100 to 10000 nM | 100 to 10000 nM | –
11 | Cc1c(-c2ncc(F)c3sc(N)c(C#N)c23)c2nn(C)cc2c2c(N3CCOCC(C)(O)C3)nc(OC[C@@]34CCCN3C[C@H](F)C4)nc12 (stereo partly drawn) [Example 108, 2-amino-7-fluoro-4-[7-[[(2R,8S)-2-fluoro-1,2,3,5,6,7-hexahydropyrrolizin-8-yl]methoxy]-9-(6-hydroxy-6-methyl-1,4-oxazepan-4-yl)-2,5-dimethyl-pyrazolo[4,3-f]quinazolin-4-yl]thieno[3,2-c]pyridine-3-carbonitrile] | 100 to 10000 nM | 100 to 10000 nM | –
12 | CCc1c(F)ccc2cc(O)cc(-c3c(F)c4nc(OC[C@@]56CCCN5C[C@H](F)C6)nc(N5CCC[C@@H](O)C5)c4c4cn(C)nc34)c12 [Example 178, (3R)-1-[4-(8-ethyl-7-fluoro-3-hydroxy-1-naphthyl)-5-fluoro-2-methyl-7-[[(2R,8S)-2-fluoro-1,2,3,5,6,7-hexahydropyrrolizin-8-yl]methoxy]pyrazolo[4,3-f]quinazolin-9-yl]piperidin-3-ol] | ≤ 10 nM | ≤ 10 nM | –
13 | CCc1c(F)ccc2cc(O)cc(-c3c(C)c4nc(OC[C@@H]5CCN5C)nc(N5CCOCC(C)(O)C5)c4c4cn(C)nc34)c12 (stereo partly drawn) [Example 143, 4-[4-(8-ethyl-7-fluoro-3-hydroxy-1-naphthyl)-2,5-dimethyl-7-[[(2S)-1-methylazetidin-2-yl]methoxy]pyrazolo[4,3-f]quinazolin-9-yl]-6-methyl-1,4-oxazepan-6-ol] | ≤ 10 nM | ≤ 10 nM | –
14 | CCc1c(F)ccc2c(F)c(O)cc(-c3cc4nc(OC[C@@]56CCCN5C[C@H](F)C6)nc(N5CCCn6nc(C(=O)N(C)C)cc6C5)c4c4cn(C)nc34)c12 [Example 82, 5-[4-(8-ethyl-4,7-difluoro-3-hydroxy-1-naphthyl)-2-methyl-7-[[(2R,8S)-2-fluoro-1,2,3,5,6,7-hexahydropyrrolizin-8-yl]methoxy]pyrazolo[4,3-f]quinazolin-9-yl]-N,N-dimethyl-4,6,7,8-tetrahydropyrazolo[1,5-a][1,4]diazepine-2-carboxamide] | ≤ 10 nM | ≤ 10 nM | –
15 | CCc1c(F)ccc2cc(O)cc(-c3cc4nc(OC[C@@]56CCCN5C[C@H](F)C6)nc(N5CCOCC(C)(O)C5)c4c4cn(C)nc34)c12 (stereo partly drawn) [Example 8, 4-[4-(8-ethyl-7-fluoro-3-hydroxy-1-naphthyl)-2-methyl-7-[[(2R,8S)-2-fluoro-1,2,3,5,6,7-hexahydropyrrolizin-8-yl]methoxy]pyrazolo[4,3-f]quinazolin-9-yl]-6-methyl-1,4-oxazepan-6-ol] | ≤ 10 nM | ≤ 10 nM | –
16 | CCc1c(F)ccc2cc(O)cc(-c3cc4nc(OC[C@@]56CCCN5C[C@H](F)C6)nc(N5CCC(C)(O)C5)c4c4cn(C)nc34)c12 (stereo partly drawn) [Example 116, 1-[4-(8-ethyl-7-fluoro-3-hydroxy-1-naphthyl)-2-methyl-7-[[(2R,8S)-2-fluoro-1,2,3,5,6,7-hexahydropyrrolizin-8-yl]methoxy]pyrazolo[4,3-f]quinazolin-9-yl]-3-methyl-pyrrolidin-3-ol] | 10 to 100 nM | 10 to 100 nM | –
